Measured values taken from US8501778B2, “Aralkyl piperidine derivatives and their uses as antalgic or ataractic agent” (priority 2008, dated 2013).
Where a name gives a salt, the structure may show the parent alone.

These compounds were tested on Kunming mice (assay: Acetic Acid Twisting Method in mice (antalgic effect)). Conditions: Mus musculus, po; 20 mg/kg, gavage administration, mice; read-out: twisting response inhibiting rate (%).
Type: in vivo

Row | Compound | inhibition in vivo at 20 mg/kg
1 | CC(=O)Oc1ccccc1C(=O)O [Aspirin, reference compound] | 90%

Same assay, conditions: Mus musculus, sc, read-out: antalgic

Row | Compound | inhibition in vivo at 20 mg/kg
2 | O=C(CC1(O)CCN(Cc2ccc3c(c2)CCN3)CC1)c1ccccc1 [III-30, N-(5-indolinyl)methyl-4-benzoylmethyl-4-piperidinol hydrochloride] | 42%
3 | O=C(CC1(O)CCN(Cc2ncccn2)CC1)c1ccccc1 [III-10, N-(2-pyrimidinyl)methyl-4-benzoylmethyl-4-piperidinol hydrochloride] | 51%
4 | CC(c1ccc(N2CCCC2)cc1)N1CCC(F)(CC(=O)c2ccccc2)CC1 (stereo not shown) [IX-4, N-(1-(4-(pyrrolidinyl)phenyl)ethyl)-4-benzoylmethyl-4-fluoropiperidine hydrochloride] | 64%
5 | COC1(CC(=O)c2ccccc2)CCN(C(C)c2ccc(N3CCOCC3)cc2)CC1 (stereo not shown) [VIII-3, N-(1-(4-morpholinophenyl)ethyl)-4-benzoylmethyl-4-methoxylpiperidine hydrochloride] | 60%
6 | O=C(CC1(O)CCN(Cc2ccc3c(c2)OCO3)CC1)c1ccccc1 [III-13, N-(benzo[d][1,3]dioxol-5-ylmethyl)-4-benzoylmethyl-4-piperidinol hydrochloride] | 37%
7 | COc1ccccc1N1CCC(O)(CC(O)c2ccccc2)CC1 (stereo not shown) [Compound V-5, N-(2-methoxyphenyl)-4-(2-hydroxy-2-phenylethyl)-4-piperidinol hydrochloride] | 72%
8 | O=C(CC1(O)CCN(Cc2ccccc2)CC1)c1ccc2c(c1)CCN2 [III-37, N-benzyl-4-(2-(5-indolinyl)-2-oxoethyl)-4-piperidinol hydrochloride] | 52%
9 | CC(c1ccccc1)N1CCC(O)(CC(=O)c2ccccc2)CC1 (stereo not shown) [III-16, N-(1-phenylethyl)-4-benzoylmethyl-4-piperidinol hydrochloride] | 33%
10 | COc1ccc(C(C)N2CCC(O)(CC(=O)c3ccccc3)CC2)cc1 (stereo not shown) [III-19, N-(1-(4-methoxyphenyl)ethyl)-4-benzoylmethyl-4-piperidinol hydrochloride] | 91%
11 | COc1ccc(C(C)N2CCC(Cl)(CC(=O)c3ccccc3)CC2)cc1 (stereo not shown) [IX-5, N-(1-(p-methoxyphenyl)ethyl)-4-benzoylmethyl-4-chloropiperidine hydrochloride] | 68%
12 | O=C(CC1(O)CCN(Cc2ccc(N3CCCCC3)cc2)CC1)c1ccccc1 [III-28, N-(4-(1-piperidinyl)benzyl)-4-benzoylmethyl-4-piperidinol hydrochloride] | 64%
13 | CC(c1ccc(F)cc1)N1CCC(O)(CC(=O)c2ccccc2)CC1 (stereo not shown) [III-20, N-(1-(4-fluorophenyl)ethyl)-4-benzoylmethyl-4-piperidinol hydrochloride] | 37%
14 | O=C(CC1(O)CCN(c2ccc3ccccc3n2)CC1)c1ccccc1 [III-11, N-(2-quinolyl)-4-benzoylmethyl-4-piperidinol hydrochloride] | 44%
15 | O=C(CC1(O)CCN(Cc2ccccc2)CC1)c1ccccn1 [III-34, N-benzyl-4-(2-pyridinylformylmethyl)-4-piperidinol hydrobromide] | 75%
16 | COc1ccc(C(=O)CC2(O)CCN(Cc3ccccc3)CC2)cc1 [III-32, N-benzyl-4-(p-methoxybenzoylmethyl)-4-piperidinol hydrobromide] | 49%
17 | CC(c1ccc(N)cc1)N1CCC(O)(CC(=O)c2ccccc2)CC1 (stereo not shown) [III-21, N-(1-(4-aminophenyl)ethyl)-4-benzoylmethyl-4-piperidinol hydrochloride] | 57%
18 | O=C(CC1(O)CCN(Cc2ccc(Cl)cc2)CC1)c1ccccc1 [III-2, N-p-chlorobenzyl-4-benzoylmethyl-4-piperidinol hydrochloride] | 14%
19 | O=C(CC1(O)CCN(Cc2ccc(N3CCOCC3)cc2)CC1)c1ccccc1 [III-26, N-(4-morpholinobenzyl)-4-benzoylmethyl-4-piperidinol hydrochloride] | 64%
20 | COc1cc(CN2CCC(O)(CC(=O)c3ccccc3)CC2)cc(OC)c1OC [III-14, N-(3,4,5-trimethoxybenzyl)-4-benzoylmethyl-4-piperidinol hydrochloride] | 54%
21 | O=C(CC1(O)CCN(Cc2ccccc2)CC1)c1ccc(N2CCCC2)cc1 [III-35, N-benzyl-4-(4-(pyrrolidinyl)benzoylmethyl)-4-piperidinol hydrochloride] | 64%
22 | COc1ccc(CN2CCC(O)(CC(O)c3ccccc3)CC2)cc1 (stereo not shown) [Compound V-1, N-p-methoxybenzyl-4-(2-hydroxy-2-phenylethyl)-4-piperidinol hydrochloride] | 76%

Row | Compound | inhibition in vivo at 20 mg/kg
23 | O=C1Cc2cc(CN3CCC(O)(CC(=O)c4ccccc4)CC3)ccc2N1 [III-29, N-(2-oxo-5-indolinyl)methyl-4-benzoylmethyl-4-piperidinol hydrochloride] | 45%
24 | O=C(CC1(O)CCN(Cc2ccccc2)CC1)c1ccc2c(c1)OCO2 [III-38, N-benzyl-4-(2-(benzo[d][1,3]dioxol-5-yl)-2-oxoethyl)-4-piperidinol hydrochloride] | 46%
25 | O=C(CC1(O)CCN(Cc2ccccc2)CC1)c1ccc(Cl)cc1 [III-33, N-benzyl-4-(p-chlorobenzoylmethyl)-4-piperidinol hydrobromide] | 26%
26 | CC(c1ccc(N2CCOCC2)cc1)N1CCC(F)(CC(=O)c2ccccc2)CC1 (stereo not shown) [IX-3, N-(1-(4-morpholinophenyl)ethyl)-4-benzoylmethyl-4-fluoropiperidine hydrochloride] | 64%
27 | O=C(CC1(F)CCN(Cc2ccc3c(c2)OCO3)CC1)c1ccccc1 [IX-2, N-(benzo[d][1,3]dioxol-5-ylmethyl)-4-benzoylmethyl-4-fluoropiperidine hydrochloride] | 45%
28 | CC(c1ccc2c(c1)OCO2)N1CCC(O)(CC(=O)c2ccccc2)CC1 (stereo not shown) [III-22, N-(1-(benzo[d][1,3]dioxol-5-yl)ethyl)-4-benzoylmethyl-4-piperidinol hydrochloride] | 43%
29 | OC(CC1(O)CCN(Cc2ccc3c(c2)CCN3)CC1)c1ccccc1 (stereo not shown) [Compound V-6, N-(5-indolinyl)methyl-4-(2-hydroxy-2-phenylethyl)-4-piperidinol hydrochloride] | 69%
30 | COc1ccccc1N1CCC(O)(CC(=O)c2ccccc2)CC1 [III-12, N-(2′-methoxyphenyl)-4-benzoylmethyl-4-piperidinol hydrochloride] | 21%
31 | CC(c1ccc(N2CCOCC2)cc1)N1CCC(O)(CC(=O)c2ccccc2)CC1 (stereo not shown) [III-27, N-(1-(4-morpholinophenyl)ethyl)-4-benzoylmethyl-4-piperidinol hydrochloride] | 92%
32 | COc1ccc(C(C)N2CCC(CC(=O)c3ccccc3)(OC)CC2)cc1 (stereo not shown) [VIII-2, N-(1-(p-methoxyphenyl)ethyl)-4-benzoylmethyl-4-methoxylpiperidine hydrochloride] | 76%
33 | C[C@@H](c1ccccc1)N1CCC(O)(CC(=O)c2ccccc2)CC1 [III-18, (S)—N-(1-phenylethyl)-4-benzoylmethyl-4-piperidinol hydrochloride] | 84%
34 | O=C(CC1(Cl)CCN(Cc2ccc3c(c2)OCO3)CC1)c1ccccc1 [IX-6, N-(benzo[d][1,3]dioxol-5-ylmethyl)-4-benzoylmethyl-4-chloropiperidine hydrochloride] | 59%
35 | CC(C(=O)c1ccccc1)C1(O)CCN(Cc2ccccc2)CC1 (stereo not shown) [III-39, N-benzyl-4-(1-benzoylethyl)-4-piperidinol hydrochloride] | 56%
36 | O=C(CC1(O)CCN(Cc2ccccn2)CC1)c1ccccc1 [III-8, N-(2-pyridyl)methyl-4-benzoylmethyl-4-piperidinol hydrochloride] | 77%
37 | CC(c1ccc(N2CCOCC2)cc1)N1CCC(O)(CC(O)c2ccccc2)CC1 (stereo not shown) [Compound V-8, N-(1-(4-morpholinophenyl)ethyl)-4-(2-hydroxy-2-phenylethyl)-4-piperidinol hydrochloride] | 77%
38 | O=C(CC1(O)CCN(Cc2ccccc2)CC1)c1ccc(N2CCOCC2)cc1 [III-36, N-benzyl-4-((4-morpholinobenzoyl)methyl)-4-piperidinol hydrochloride] | 41%
39 | CC(c1ccc(N2CCCC2)cc1)N1CCC(O)(CC(=O)c2ccccc2)CC1 (stereo not shown) [III-25, N-(1-(4-(1-pyrrolidinyl)phenyl)ethyl)-4-benzoylmethyl-4-piperidinol hydrochloride] | 80%
40 | C[C@H](c1ccccc1)N1CCC(O)(CC(=O)c2ccccc2)CC1 [III-17, (R)—N-(1-phenylethyl)-4-benzoylmethyl-4-piperidinol hydrochloride] | 66%
41 | O=C(CC1(O)CCN(Cc2ccc(N3CCCC3)cc2)CC1)c1ccccc1 [III-24, N-(4-(1-pyrrolidinyl)benzyl)-4-benzoylmethyl-4-piperidinol hydrochloride] | 62%
42 | O=C(CC1(O)CCN(c2ncccn2)CC1)c1ccccc1 [III-9, N-(2-pyrimidinyl)-4-benzoylmethyl-4-piperidinol hydrochloride] | 57%
43 | OC(CC1(O)CCN(Cc2ccc3c(c2)OCO3)CC1)c1ccccc1 (stereo not shown) [Compound V-4, N-(benzo[d][1,3]dioxol-5-ylmethyl)-4-(2-hydroxy-2-phenylethyl)-4-piperidinol hydrochloride] | 76%
